Results on nine molecules are retold here after ChEMBL document CHEMBL1201862, “PubChem BioAssay data set” (2004).

Experiment [1] has as its target fMet-Leu-Phe receptor (Homo sapiens, UniProt P21462). In words: FPR ligands, dose response (AID 519). It is filed as functional.
Experiment [2] is described as follows: inhibitors of firefly luciferase expression or activity, dose response, H4 neuroglioma cells, luminescence (AID 1990). It counts as functional, cell-based.
The nature of experiment [3]: Luminescence Cell-Based Dose Response HTS to Identify Inhibitors of 5'UTR Stem-Loop Driven Prion Protein mRNA Translation in H4 Neuroglioblastoma Cells. [Related pubchem assays: 1827 (Project Summary), 1813 (Primary HTS)]. It counts as functional.
Experiment [4] can be described thus: inhibitors of SNCA 5'UTR-driven reporter translation, confirmation, H4 neuroglioma cells, luminescence (AID 1988). It is filed as functional, cell-based.
The nature of experiment [5]: microbe, parasite or virus in culture. It counts as functional. The settings on record: Mycobacterium tuberculosis.
The target of experiment [6] is Beta-lactamase (Pseudomonas aeruginosa, UniProt Q79MP6).
For experiment [7], the target named is Beta-lactamase (Salmonella choleraesuis (strain SC-B67), UniProt Q5J463).
Experiment [8] has as its system INS1. Nature of the experiment: beta cell apoptosis inhibitors, cytokine rescue, dose response, luminescence, retest (AID 449756).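 Note: cell death triggered by IL-1 beta plus TNF-alpha plus IFN-gamma mixture; protective hits raise ATP signal compared with cytokine alone wells.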 The conditions noted are these: Rattus norvegicus. It is filed as functional, cell-based.
Experiment [9] addresses Major prion protein (Homo sapiens, UniProt P04156). It counts as functional, cell-based.
The nature of experiment [10]: cells.
Experiment [11] concerns the target T1, Oxysterols receptor LXR-beta (Homo sapiens, UniProt P55055).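 Note: agonist activity at LXR measured by a cell-based luminescence readout across a dose range, run as a counterscreen for daf-12 agonists; HEK293 cells with Gal4-LXR fusion and GAL4-driven luciferase reporter; potency for activation of Gal4-LXR reporter so compounds are agonists.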
T1 sequence (P55055 whole entry): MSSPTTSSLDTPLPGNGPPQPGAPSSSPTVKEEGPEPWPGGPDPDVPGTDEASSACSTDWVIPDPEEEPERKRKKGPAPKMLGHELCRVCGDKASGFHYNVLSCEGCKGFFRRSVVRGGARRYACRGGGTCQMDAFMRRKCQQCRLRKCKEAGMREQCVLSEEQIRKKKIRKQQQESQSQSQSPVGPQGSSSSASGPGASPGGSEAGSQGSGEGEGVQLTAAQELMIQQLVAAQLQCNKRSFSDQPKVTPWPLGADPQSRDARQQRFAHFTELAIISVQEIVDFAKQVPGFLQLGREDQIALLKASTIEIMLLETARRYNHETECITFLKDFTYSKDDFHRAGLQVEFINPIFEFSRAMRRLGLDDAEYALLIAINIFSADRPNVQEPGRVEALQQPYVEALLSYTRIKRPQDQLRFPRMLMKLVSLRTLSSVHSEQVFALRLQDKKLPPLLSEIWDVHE
It is filed as functional, cell-based.

Experiment [12] deals with BJ. Nature of the experiment: cytotoxicity toward BJ-TERT fibroblasts, dose response, cell-based, RAS-independent, luminescence (AID 1933). The settings on record: Homo sapiens. It is filed as functional.
Experiment [13] deals with BJ. In words: cells. It counts as functional, cell-based. The conditions noted are these: Homo sapiens.
The test system of experiment [14] is BJ. In words: cytotoxicity toward BJ-TERT-LT-ST fibroblasts, dose response, cell-based, RAS-independent, luminescence (AID 1935).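 Note: BJ fibroblasts immortalized with TERT plus LT and ST oncogenes.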 The settings on record: Homo sapiens. It is filed as functional.
Experiment [15] in a line: cytotoxicity toward DRD oncogenic fibroblasts, dose response, cell-based, non-viral oncogenic, luminescence (AID 1934). It is filed as functional. The settings on record: Homo sapiens.
Experiment [16] in a line: cells. The settings on record: A549.
Experiment [17] can be described thus: cells. The conditions noted are these: HEK293.
Experiment [18] in a line: HEp-2 cell cytotoxicity, dose response, cytotoxicity control for RSV inhibitor project, HTS (AID 2410). It counts as functional. The settings on record: human respiratory syncytial virus.
Experiment [19] can be described thus: endogenous miR-122 level reduction, dose response, orthogonal assay for miR-122 inhibitor project, cell-based, Huh7, RT-qPCR, dry powder (AID 687041). It is filed as functional.
A short description of experiment [20]: cells. The source holds these as a separate data set.
Experiment [21] is described as follows: M. tuberculosis H37Rv growth inhibitors, H37Rv strain (AID 1626). It is filed as functional.
The subject of experiment [22] is H9c2. In words: cells. The conditions noted are these: Rattus norvegicus, H9c2, Myocardium. It counts as functional, cell-based.
A short description of experiment [23]: Artemis endonuclease inhibitor potency, dose response, biochemical, fluorescence intensity (AID 720701).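 Note: Artemis endonuclease enzyme.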 It counts as functional.
A short description of experiment [24]: Late stage results for the probe development effort to identify inhibitors of Plasmodium falciparum gametocytes: Luminescence-based cell-based high throughput dose response assay to identify inhibitors of viability of late stage Plasmodium falciparum gametocytes. It counts as functional.
Experiment [25] concerns the target Potassium channel subfamily K member 9 (Homo sapiens, UniProt Q9NPC2). In words: TASK3 (KCNK9) channel inhibitors, thallium flux, SAR follow-up, selectivity assay for TASK1 inhibitor project, cell-based, FluxOR thallium flux, concentration-response (AID 652211).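 Note: potency is for inhibitors of the channel.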 It is filed as functional.
Experiment [26] addresses Potassium channel subfamily K member 3 (Rattus norvegicus, UniProt O54912). In words: SAR analysis for the identification of selective inhibitors of the two-pore domain potassium channel TASK1(KCNK3):Automated Electrophysiology. It counts as functional.
Experiment [27] deals with Potassium channel subfamily K member 3 (Homo sapiens, UniProt O14649). In words: TASK1 (KCNK3) potassium channel inhibitors, SAR follow-up, CHO cells, FluxOR thallium flux (AID 652212). It counts as functional.
Experiment [28] addresses Disintegrin and metalloproteinase domain-containing protein 17 (Homo sapiens, UniProt P78536). Nature of the experiment: exosite inhibitors of ADAM17, dose response, biochemical (AID 743260).
The nature of experiment [29]: ADAM10 protease inhibitors, dose response, selectivity assay for ADAM17 exosite inhibitor project, biochemical, FRET peptide substrate, recombinant human ADAM10 (AID 743259).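 Note: ADAM10 enzyme cleaving a FRET peptide substrate.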
In experiment [30] the target is Paired box protein Pax-8 (Homo sapiens, UniProt Q06710). Nature of the experiment: inhibitors of PAX8-driven TPO luciferase reporter, dose response, RMG-I cells, cherry-pick (AID 687027).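 Note: luciferase reporter driven by Pax8 target thyroperoxidase promoter measured by SteadyGlo luminescence.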 It counts as functional, cell-based. (In general: Reporter assays use an easily measured gene product as a stand-in for the process of interest.)
A short description of experiment [31]: IOSE-T80 ovarian epithelial cell cytotoxicity, dose response, cytotoxicity control for PAX8 inhibitor project, plate reader, dry powder samples (AID 743045). It is filed as functional, cell-based.
The nature of experiment [32]: inhibitors of PGC1a acetylation in cells, dose response, cell-based, cherry-picked samples (AID 720514).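 Note: potency may reflect raised or lowered acetylation signal.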 It is filed as functional.
A short description of experiment [33]: NIH:OVCAR-3 ovarian cancer cell cytotoxicity, dose response, PAX8 inhibitor project, plate reader, dry powder samples (AID 743044). It counts as functional, cell-based.
A short description of experiment [34]: non-specific cell cytotoxicity, dose response, cytotoxicity control for PAX8 inhibitor project, plate reader, dry powder samples (AID 743021). It is filed as functional, cell-based.
The nature of experiment [35]: cytotoxicity in OVCAR8 ovarian cancer cells, dose response, PAX8 project, cell-based, plate reader, dry powder samples (AID 743197). It is filed as functional. The settings on record: OVCAR-8.
Experiment [36] in a line: P. falciparum Dd2 growth inhibitors, dose response, SYBR Green, cherry-picked samples (AID 1159567). It is filed as functional, cell-based.
A short description of experiment [37]: HepG2 cell cytotoxicity, dose response, cytotoxicity control, cherry-picked samples (AID 1159577). It is filed as functional, cell-based.

Active and inactive are the calls of the source.

Consider `CCOc1cccc(C(=O)C2=C(O)C(=O)N(Cc3cccnc3)C2c2ccco2)c1` (configuration not stated), for which the Ki in experiment [1] was > 66.7 µM (inactive).

Regarding `CCOc1ccc(-c2cc(C(=O)NCCCn3ccnc3)c3cc(Br)ccc3n2)cc1`, the EC50 in experiment [2], in experiment [3] and in experiment [4] was > 120 µM (not active) throughout. Further, in experiment [5], the CC50 was 16.7 µM (active). The IC50 is > 59.6 µM (inactive) in [6], > 59.6 µM (inactive) in experiment [7], 4.38 µM (active) in experiment [9] and 23.5 µM (inactive) in [10]. The AC50 in experiment [8] is 9.7 µM (active).

Take `Cc1cccc(C(=N)NOC(=O)c2ccco2)c1`: the EC50 in [11] is > 67.6 µM (inactive).

In the case of `CN(C)C(=O)CSc1nc2cc(C(=O)c3ccccc3)ccc2[nH]1`, the EC50 in experiment [12] was > 150 µM (not active); in experiment [13] it was 14.3 µM (inconclusive); in experiment [14], > 150 µM (inconclusive); in experiment [15], > 150 µM (not active). Moreover, the AC50 in experiment [16] is 35.9 µM (active); in [17], 29.9 µM (active).

In the case of `CC1CCCCN1C(=O)c1cc2nc(-c3ccccc3)cc(-c3ccccc3)n2n1` (configuration not stated), the CC50 in experiment [18] is 15.6 µM (active). The AC50 in experiment [19] is 1.13 µM (active). Further, the IC50 in experiment [20] was 19.3 µM (active).

Turning to `COc1ccc(-c2nn(-c3ccccc3)cc2C(=O)Nc2nccs2)cc1`, the half-maximal inhibitory concentration (IC50) in [21] was > 100 µM (active); in [22], > 79 µM (inactive); in [23] it was 9.49 µM (active); in experiment [24] it was > 74.4 µM (inactive).

As for `CCOc1ccccc1NC(=O)c1cccc(NC(=O)C2CCCC2)c1`, the IC50 in [25] is 1.84 µM (active); in [26], 0.123 µM (active); in experiment [27] it was 0.054 µM (active).

In the case of `COc1ccc(NC(=O)Nc2ccc3c(c2)C(=O)N([C@@H](C)CO)C[C@@H](C)[C@@H](CN(C)S(=O)(=O)c2cccs2)O3)cc1`, the IC50 in [28] was > 69.5 µM (inactive); in [29] it was > 7.72 µM (active).

As for `Cc1ccc(-c2ccc([C@@H]3[C@@H]4CN(C(=O)Nc5ccc(C(F)(F)F)cc5)C[C@H]3N4)cc2)cc1`, the AC50 in [30] was 3.06 µM (active); in [31], 11.3 µM (active); in [32], 6.73 µM (active); in experiment [33], 17 µM (active); in experiment [34] it was 14 µM (active); in experiment [35], 22.8 µM (active). Moreover, the AC50 is 2.33 µM (active) in experiment [36] and 2.72 µM (active) in [37].

One may read the Ki as a measure of affinity in units of concentration, obtained from inhibition or displacement. What is called EC50 is the concentration giving half of the maximal effect. The term IC50 denotes the point on the concentration scale where inhibition reaches its midpoint. For orientation: AC50 means the midpoint of the concentration-response curve, whichever way the signal moves.
